We go through 10 compounds from US20230406885A1, “CYCLIC PEPTIDES FOR TRAPPING INTERLEUKIN-1 BETA” (MERCK SHARP & DOHME LLC, priority 2022, published 2023).

Where a SMILES comes first, the peptide text is derived from it. [ ]: non-standard residue; d: D form. The star is where a group is joined. Bip(4'-COOH) = N[C@@H](Cc1ccc(-c2ccc(C(=O)O)cc2)cc1)C(=O)O; 1Nal(3S-Me) = C[C@@H](c1cccc2ccccc12)[C@H](N)C(=O)O; Phe(4-COOH) = N[C@@H](Cc1ccc(C(=O)O)cc1)C(=O)O; h3Pal(5-CN) = N#Cc1cncc(CC[C@H](N)C(=O)O)c1; Pro(4R-NH2) = N[C@H]1CN[C@H](C(=O)O)C1; AEF = NCCOc1ccc(C[C@H](N)C(=O)O)cc1; Ethyl(2-morpholino) = C1CN(CC*)CCO1; hTyr = N[C@@H](CCc1ccc(O)cc1)C(=O)O; hPhe = N[C@@H](CCc1ccccc1)C(=O)O; dDab = NCC[C@@H](N)C(=O)O; dNMeA = CN[C@H](C)C(=O)O; Dab = NCC[C@H](N)C(=O)O; Dap = NC[C@H](N)C(=O)O; Aib = CC(C)(N)C(=O)O

What is called IC50 is the point on the concentration scale where inhibition reaches its midpoint.

T1 sequence (P01584 117-269): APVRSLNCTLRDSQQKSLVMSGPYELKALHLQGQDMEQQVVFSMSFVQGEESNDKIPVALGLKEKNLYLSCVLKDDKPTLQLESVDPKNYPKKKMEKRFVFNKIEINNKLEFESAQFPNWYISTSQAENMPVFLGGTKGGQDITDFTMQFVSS

The first test addresses T1, Recombinant human IL-1β (Homo sapiens, UniProt P01584).
T1 construct: purchased BioLegend 579404
The test is described as follows: IL-6 assay in MRC5 cells: inhibition of IL-1β induced IL-6 secretion (AlphaLISA). It counts as cell-based. To be noted: inhibition of IL-1β induced IL-6 secretion in MRC5 cells; IL-1β pre-incubated 1 hour with compound; read-out: MRC5 IC50. Put shortly: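 IL-1β at 2×EC80 in seeding medium (EMEM, 0.025% BSA) preincubated 1 h at ambient temperature with compound, then 3000 MRC5 cells/well added and incubated overnight at 37 °C, 5% CO2. IL-6 in conditioned medium quantified by AlphaLISA; IC50 from 4-parameter logistic fit.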
(In general: Bead proximity is the source of the signal in Alpha formats.)
As for `CC(=O)NCCOc1ccc(C[C@@H]2NC(=O)[C@H](CCc3ccccc3)NC(=O)[C@@H](C)NC(=O)[C@H](CCN)NC(=O)[C@H](Cc3c[nH]c4ccccc34)NC(=O)[C@H](Cc3ccc(-c4ccc(C(=O)O)cc4)cc3)NC(=O)CNC(=O)[C@@H](C)N(C)C(=O)[C@H](CC(=O)O)NC(=O)[C@H]([C@@H](C)c3cccc4ccccc34)NC(=O)[C@@H]3C[C@@H](N)CN3C(=O)CNC(=O)[C@H](Cc3ccc(C(=O)O)cc3)NC(=O)[C@H](Cc3c[nH]c4ccccc34)NC2=O)cc1` [Example 115] (cyclo([AEF](Ac)W[Phe(4-COOH)]G[Pro(4R-NH2)][1Nal(3S-Me)]D[dNMeA]G[Bip(4'-COOH)]W[Dab][dA][hPhe])), the concentration for half-maximal inhibition (IC50) was found to be 0.085 nM.

Turning to `CC(=O)NCCOc1ccc(C[C@@H]2NC(=O)[C@H](CCc3ccc(O)cc3)NC(=O)[C@@H](C)NC(=O)[C@H](CCN)NC(=O)[C@H](Cc3c[nH]c4ccccc34)NC(=O)[C@H](Cc3ccc(-c4ccc(C(=O)O)cc4)cc3)NC(=O)CNC(=O)[C@@H](C)N(C)C(=O)[C@H](CC(=O)O)NC(=O)[C@H]([C@@H](C)c3cccc4ccccc34)NC(=O)[C@@H]3C[C@@H](N)CN3C(=O)CNC(=O)[C@H](Cc3ccc(C(=O)O)cc3)NC(=O)[C@H](Cc3c[nH]c4ccccc34)NC2=O)cc1` [Example 116] (cyclo([AEF](Ac)W[Phe(4-COOH)]G[Pro(4R-NH2)][1Nal(3S-Me)]D[dNMeA]G[Bip(4'-COOH)]W[Dab][dA][hTyr])), the 50% inhibitory concentration (IC50) was found to be 0.492 nM.

Staying with this test, now noted: inhibition of IL-1β induced IL-6 secretion in MRC5 cells; read-out: MRC5 IC50.
For the compound `CC(=O)NCCOc1ccc(C[C@@H]2NC(=O)[C@H](CCc3ccc(O)cc3)NC(=O)C(C)(C)NC(=O)[C@H](CN)NC(=O)[C@H](Cc3c[nH]c4ccccc34)NC(=O)[C@H](Cc3ccc(-c4ccc(C(=O)O)cc4)cc3)NC(=O)CNC(=O)[C@@H](C)N(C)C(=O)[C@H](CC(=O)O)NC(=O)[C@H]([C@@H](C)c3cccc4ccccc34)NC(=O)[C@@H]3C[C@@H](N)CN3C(=O)CNC(=O)[C@H](Cc3ccc(C(=O)O)cc3)NC(=O)[C@H](Cc3c[nH]c4ccccc34)NC2=O)cc1` [Example 117] (cyclo([AEF](Ac)W[Phe(4-COOH)]G[Pro(4R-NH2)][1Nal(3S-Me)]D[dNMeA]G[Bip(4'-COOH)]W[Dap][Aib][hTyr])), the concentration for half-maximal inhibition (IC50) was found to be 0.16 nM.

For `CC(=O)NCCOc1ccc(C[C@@H]2NC(=O)[C@H](C)NC(=O)[C@@H](C)NC(=O)[C@H](CN)NC(=O)[C@H](Cc3c[nH]c4ccccc34)NC(=O)[C@H](Cc3ccc(-c4ccc(C(=O)O)cc4)cc3)NC(=O)CNC(=O)[C@@H](C)N(C)C(=O)[C@H](CC(=O)O)NC(=O)[C@H]([C@@H](C)c3cccc4ccccc34)NC(=O)[C@@H]3C[C@@H](N)CN3C(=O)CNC(=O)[C@H](Cc3ccc(C(=O)O)cc3)NC(=O)[C@H](Cc3c[nH]c4ccccc34)NC2=O)cc1` [Example 118] (cyclo([AEF](Ac)W[Phe(4-COOH)]G[Pro(4R-NH2)][1Nal(3S-Me)]D[dNMeA]G[Bip(4'-COOH)]W[Dap][dA]A)), the IC50 amounted to 0.973 nM.

Take `CC(=O)NCCOc1ccc(C[C@@H]2NC(=O)[C@H](CCc3ccc(O)cc3)NC(=O)[C@@H](C)NC(=O)[C@H](CN)NC(=O)[C@H](Cc3c[nH]c4ccccc34)NC(=O)[C@H](Cc3ccc(-c4ccc(C(=O)O)cc4)cc3)NC(=O)CNC(=O)[C@@H](C)N(C)C(=O)[C@H](CC(=O)O)NC(=O)[C@H]([C@@H](C)c3cccc4ccccc34)NC(=O)[C@@H]3C[C@@H](N)CN3C(=O)CNC(=O)[C@H](Cc3ccc(C(=O)O)cc3)NC(=O)[C@H](Cc3c[nH]c4ccccc34)NC2=O)cc1` [Example 119] (cyclo([AEF](Ac)W[Phe(4-COOH)]G[Pro(4R-NH2)][1Nal(3S-Me)]D[dNMeA]G[Bip(4'-COOH)]W[Dap][dA][hTyr])): the 50% inhibitory concentration (IC50) was determined as 0.0602 nM.

`CC(=O)NCCOc1ccc(C[C@@H]2NC(=O)[C@H](Cc3ccc(OCCN4CCOCC4)cc3)NC(=O)[C@@H](C)NC(=O)[C@H](CN)NC(=O)[C@H](Cc3c[nH]c4ccccc34)NC(=O)[C@H](Cc3ccc(-c4ccc(C(=O)O)cc4)cc3)NC(=O)CNC(=O)[C@@H](C)N(C)C(=O)[C@H](CC(=O)O)NC(=O)[C@H]([C@@H](C)c3cccc4ccccc34)NC(=O)[C@@H]3C[C@@H](N)CN3C(=O)CNC(=O)[C@H](Cc3ccc(C(=O)O)cc3)NC(=O)[C@H](Cc3c[nH]c4ccccc34)NC2=O)cc1` [Example 120] (cyclo([AEF](Ac)W[Phe(4-COOH)]G[Pro(4R-NH2)][1Nal(3S-Me)]D[dNMeA]G[Bip(4'-COOH)]W[Dap][dA]Y(Ethyl(2-morpholino)))): the IC50 came to 0.86 nM.

For the compound `CC(=O)NCCOc1ccc(C[C@@H]2NC(=O)[C@H](CCc3ccc(O)cc3)NC(=O)[C@@H](C)N(C)C(=O)[C@H](CN)NC(=O)[C@H](Cc3c[nH]c4ccccc34)NC(=O)[C@H](Cc3ccc(-c4ccc(C(=O)O)cc4)cc3)NC(=O)CNC(=O)[C@@H](C)N(C)C(=O)[C@H](CC(=O)O)NC(=O)[C@H]([C@@H](C)c3cccc4ccccc34)NC(=O)[C@@H]3C[C@@H](N)CN3C(=O)CNC(=O)[C@H](Cc3ccc(C(=O)O)cc3)NC(=O)[C@H](Cc3c[nH]c4ccccc34)NC2=O)cc1` [Example 121] (cyclo([AEF](Ac)W[Phe(4-COOH)]G[Pro(4R-NH2)][1Nal(3S-Me)]D[dNMeA]G[Bip(4'-COOH)]W[Dap][dNMeA][hTyr])), the half-maximal inhibitory concentration (IC50) was determined as 0.085 nM.

On to `CC(=O)NCCOc1ccc(C[C@@H]2NC(=O)[C@H](CCc3cncc(C#N)c3)NC(=O)[C@@H](CCN)NC(=O)CNC(=O)[C@H](Cc3c[nH]c4ccccc34)NC(=O)[C@H](Cc3ccc(-c4ccc(C(=O)O)cc4)cc3)NC(=O)CNC(=O)[C@@H](C)N(C)C(=O)[C@H](CC(=O)O)NC(=O)[C@H]([C@@H](C)c3cccc4ccccc34)NC(=O)[C@@H]3C[C@@H](N)CN3C(=O)CNC(=O)[C@H](Cc3ccc(C(=O)O)cc3)NC(=O)[C@H](Cc3c[nH]c4ccccc34)NC2=O)cc1` [Example 122] (cyclo([AEF](Ac)W[Phe(4-COOH)]G[Pro(4R-NH2)][1Nal(3S-Me)]D[dNMeA]G[Bip(4'-COOH)]WG[dDab][h3Pal(5-CN)])), for which the IC50 was found to be 0.0248 nM.

Turning to `CC(=O)NCCOc1ccc(C[C@@H]2NC(=O)[C@H](CCc3ccc(O)cc3)NC(=O)[C@@H](CCN)NC(=O)CNC(=O)[C@H](Cc3c[nH]c4ccccc34)NC(=O)[C@H](Cc3ccc(-c4ccc(C(=O)O)cc4)cc3)NC(=O)CNC(=O)[C@@H](C)N(C)C(=O)[C@H](CC(=O)O)NC(=O)[C@H]([C@@H](C)c3cccc4ccccc34)NC(=O)[C@@H]3C[C@@H](N)CN3C(=O)CNC(=O)[C@H](Cc3ccc(C(=O)O)cc3)NC(=O)[C@H](Cc3c[nH]c4ccccc34)NC2=O)cc1` [Example 123] (cyclo([AEF](Ac)W[Phe(4-COOH)]G[Pro(4R-NH2)][1Nal(3S-Me)]D[dNMeA]G[Bip(4'-COOH)]WG[dDab][hTyr])), the 50% inhibitory concentration (IC50) was found to be 0.0457 nM.

As to `CC(=O)NCCOc1ccc(C[C@@H]2NC(=O)[C@H](C)NC(=O)[C@@H](C)NC(=O)[C@H](CC(C)C)NC(=O)[C@H](Cc3c[nH]c4ccccc34)NC(=O)[C@H](Cc3ccc(-c4ccc(C(=O)O)cc4)cc3)NC(=O)CNC(=O)[C@@H](C)N(C)C(=O)[C@H](CC(=O)O)NC(=O)[C@H]([C@@H](C)c3cccc4ccccc34)NC(=O)[C@@H]3C[C@@H](N)CN3C(=O)CNC(=O)[C@H](Cc3ccc(C(=O)O)cc3)NC(=O)[C@H](Cc3c[nH]c4ccccc34)NC2=O)cc1` [Example 124] (cyclo([AEF](Ac)W[Phe(4-COOH)]G[Pro(4R-NH2)][1Nal(3S-Me)]D[dNMeA]G[Bip(4'-COOH)]WL[dA]A)), the IC50 turned out to be 0.636 nM.
